The text below walks through data of US8383817B2, “Benztropine compounds and uses thereof” (The United States of America, as represented by the …, priority 2005, dated 2013).

Test [1] is described as follows: Model For Reducing Effect of Nicotine (nicotine discrimination). Type of test: in vivo, rat. The settings on record: rats, nicotine only control 50%. The text has this:
Model For Reducing Effect of Nicotine. Food-deprived rats were trained to press one lever for a food pellet after nicotine administration and a second lever after vehicle administration. Pellets of food were delivered intermittently, so that every twentieth response produced food. Using this procedure, the only cue for the rat regarding which lever occasionally pays off with a food pellet, is the subjective effect of the nicotine. When the rats were accurately and reliably identifying the nicotine injections (approximately all of its responses on the lever that occasionally pays off after nicotine or saline), testing began. The rats were pretreated with a compound of Formula III before nicotine injection, and the experiment progressed as described above, except responses on either lever intermittently produced food. A 50% effective nicotine dose was reduced to low levels of effectiveness upon administration of a compound of Formula III.

Test [2] is described as follows: Cocaine Discrimination Assay. To be noted: rats trained to discriminate IP 10 mg/kg cocaine from saline; 80% or higher = full substitution; FIG. 1. In kind it is in vivo, rat.
The nature of test [3]: Model For Determining Increase in Attention. Type of test: in vivo, rat. To be noted: rats, five-hole chamber, 40 min session, FIG. 4B. As to the method: Model For Determining Increase in Attention. Rats were trained during daily sessions in a chamber which contained five holes along one wall. When a light came on behind one of the holes, the rat had 5 sec to respond by putting its nose in the hole. If it did this, a food pellet was dispensed. Lights came on for one second randomly in time. Each tenth “correct” response produced a food pellet. The rat had to continuously monitor (attend to) the lights to perform well. The results were measured and illustrated in FIG. 4A. […] The short diagonal marks on the line indicate the occasions on which food pellets were delivered.
Rats were administered a dose of a compound of Formula III, in which R^1 is methyl and R^2 and R^3 are each fluoro. The same task was applied and the number of correct and incorrect responses was measured. The results are depicted in FIG. 4B.

The target of test [4] is T1, NET (Rattus norvegicus, UniProt Q9WTR4).
T1 construct: rows headed: NET Ki; NET Ki
In kind it is binding. To be noted: read-out: NET Ki; Table 2.

Test [5] deals with T2, SERT (Rattus norvegicus, UniProt P31652).
T2 construct: Membranes from frozen rat midbrain were homogenized; from tissue; host or cells: rat midbrain membranes
T2 sequence (P31652 whole entry): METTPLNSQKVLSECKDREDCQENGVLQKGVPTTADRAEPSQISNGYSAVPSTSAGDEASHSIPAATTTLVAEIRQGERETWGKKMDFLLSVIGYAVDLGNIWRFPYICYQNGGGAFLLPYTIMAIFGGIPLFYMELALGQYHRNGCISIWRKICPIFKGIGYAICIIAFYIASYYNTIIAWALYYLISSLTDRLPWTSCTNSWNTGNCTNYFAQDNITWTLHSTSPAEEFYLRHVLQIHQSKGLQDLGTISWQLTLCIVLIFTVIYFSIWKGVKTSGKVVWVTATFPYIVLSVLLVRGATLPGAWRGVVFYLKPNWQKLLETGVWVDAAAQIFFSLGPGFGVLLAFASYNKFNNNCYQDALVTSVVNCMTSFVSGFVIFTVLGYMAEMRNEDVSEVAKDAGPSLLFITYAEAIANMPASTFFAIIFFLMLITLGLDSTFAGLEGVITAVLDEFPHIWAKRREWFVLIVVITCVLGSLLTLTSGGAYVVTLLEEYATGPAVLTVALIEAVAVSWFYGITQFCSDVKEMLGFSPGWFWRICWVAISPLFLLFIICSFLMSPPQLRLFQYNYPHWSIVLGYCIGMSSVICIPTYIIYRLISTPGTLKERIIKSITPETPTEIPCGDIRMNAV
As to the kind of experiment: [3H]Citalopram Binding Assay, rat midbrain membranes.

The next test addresses T3, DA uptake (Rattus norvegicus, UniProt P23977).
T3 construct: The synaptosomal tissue preparation was incubated in buffer in glass test tubes at 37° C; from tissue
As to the kind of experiment: Dopamine Uptake Assay, [3H]dopamine in synaptosomal tissue preparation. Type of test: biochemical.

The target of test [6] is T4, muscarinic M1 receptor (Rattus norvegicus, UniProt P08482).
T4 construct: Membranes from frozen rat brains excluding cerebellum were thawed; from tissue; host or cells: rat brain (excluding cerebellum) membranes
T4 sequence (P08482 1-460): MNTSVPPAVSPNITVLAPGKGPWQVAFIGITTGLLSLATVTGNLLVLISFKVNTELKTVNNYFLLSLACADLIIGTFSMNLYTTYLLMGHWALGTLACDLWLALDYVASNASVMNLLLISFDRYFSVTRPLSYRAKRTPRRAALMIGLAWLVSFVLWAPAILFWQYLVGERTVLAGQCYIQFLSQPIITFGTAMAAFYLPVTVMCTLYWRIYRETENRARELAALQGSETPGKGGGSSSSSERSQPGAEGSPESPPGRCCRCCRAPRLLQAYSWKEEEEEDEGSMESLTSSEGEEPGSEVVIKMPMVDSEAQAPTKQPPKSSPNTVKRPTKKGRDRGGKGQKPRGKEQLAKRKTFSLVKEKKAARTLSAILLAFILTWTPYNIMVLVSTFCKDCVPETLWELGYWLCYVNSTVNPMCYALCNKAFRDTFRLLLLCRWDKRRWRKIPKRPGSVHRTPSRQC
In words: [3H]Pirenzepine Binding Assay, rat brain membranes.

Test [7] deals with T5, DAT (Rattus norvegicus, UniProt P23977).
T5 construct: their brains removed to an ice-cooled dish for dissection of the caudate putamen; from tissue; host or cells: rat caudate putamen homogenate
T5 sequence (P23977 whole entry): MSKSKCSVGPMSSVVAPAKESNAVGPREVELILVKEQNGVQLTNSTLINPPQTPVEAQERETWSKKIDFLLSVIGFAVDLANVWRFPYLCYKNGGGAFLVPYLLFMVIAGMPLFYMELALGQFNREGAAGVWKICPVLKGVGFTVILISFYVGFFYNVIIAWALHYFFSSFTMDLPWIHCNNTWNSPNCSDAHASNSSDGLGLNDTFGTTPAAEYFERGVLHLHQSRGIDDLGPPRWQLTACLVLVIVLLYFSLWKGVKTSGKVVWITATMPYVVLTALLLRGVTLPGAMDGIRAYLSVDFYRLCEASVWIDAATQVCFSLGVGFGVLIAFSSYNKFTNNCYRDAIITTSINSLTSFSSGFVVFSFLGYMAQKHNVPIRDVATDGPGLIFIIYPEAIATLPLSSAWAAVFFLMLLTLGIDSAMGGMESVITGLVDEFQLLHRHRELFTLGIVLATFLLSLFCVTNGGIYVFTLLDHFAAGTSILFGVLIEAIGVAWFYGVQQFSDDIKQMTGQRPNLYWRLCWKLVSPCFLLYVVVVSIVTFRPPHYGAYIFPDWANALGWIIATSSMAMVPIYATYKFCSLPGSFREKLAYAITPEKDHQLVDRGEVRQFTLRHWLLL
In words: biochemical. Type of test: binding.

Test [8] addresses T2, SERT. To be noted: read-out: SERT [3H]citalopram Ki ± SEM; cited from earlier work.
Test [9] concerns NET. Type of test: binding, rat. The settings on record: ratio of respective Ki values; greater than 1 = DAT selective.
The target in test [10] is T4, muscarinic M1 receptor. The settings on record: read-out: M1 [3H]pirenzepine Ki ± SEM; cited from earlier work.
Test [11] concerns the target NET (Rattus norvegicus, UniProt Q63380). The settings on record: read-out: NET [3H]nisoxetine Ki ± SEM; comparative data taken from Agoston et al. 1997; cited from earlier work.
For test [12], the target named is T5, DAT. To be noted: comparative data taken from Agoston et al. 1997; read-out: DAT [3H]WIN 35,428 Ki ± SEM; cited from earlier work.
Setting [13] is: ratio of respective Ki values, greater than 1 = DAT selective.

Where two headings read alike, the source gives them in different places.

The term Ki denotes a measure of affinity in units of concentration, obtained from inhibition or displacement. What is called IC50 is the point on the concentration scale where inhibition reaches its midpoint.

T3 sequence (P23977 whole entry): as above
Sequence of NET (Rattus norvegicus, UniProt Q63380) (Q63380 1-617): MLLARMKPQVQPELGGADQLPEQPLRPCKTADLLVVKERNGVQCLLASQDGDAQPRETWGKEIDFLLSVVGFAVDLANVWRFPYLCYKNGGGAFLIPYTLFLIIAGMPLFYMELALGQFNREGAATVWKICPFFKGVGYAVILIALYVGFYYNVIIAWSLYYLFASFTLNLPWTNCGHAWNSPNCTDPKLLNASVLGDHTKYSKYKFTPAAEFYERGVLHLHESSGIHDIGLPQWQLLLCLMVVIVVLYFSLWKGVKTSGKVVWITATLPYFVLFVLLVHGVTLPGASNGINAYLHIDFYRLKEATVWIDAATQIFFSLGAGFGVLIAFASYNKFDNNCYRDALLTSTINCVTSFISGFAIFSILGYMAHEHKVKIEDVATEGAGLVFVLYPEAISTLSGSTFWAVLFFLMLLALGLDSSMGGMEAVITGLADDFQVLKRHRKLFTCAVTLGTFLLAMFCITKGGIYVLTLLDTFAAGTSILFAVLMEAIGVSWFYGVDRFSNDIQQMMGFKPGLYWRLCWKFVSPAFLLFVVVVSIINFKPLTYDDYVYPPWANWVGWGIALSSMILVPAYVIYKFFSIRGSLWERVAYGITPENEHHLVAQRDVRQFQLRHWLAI

As to `CN1[C@@H]2CC[C@@H]1CC(OC(c1ccc(F)cc1)c1ccc(F)cc1)C2` (stereo partly drawn) [AHN 1-055], in test [1] (dose 1.0 mg/kg), the “Effect (of a 50% effective nicotine dose after pretreatment)” value is 7.65%. Besides, in test [2], the “Substitution for cocaine (cocaine-appropriate responding)” value is “did not fully substitute for cocaine”. The “Number of correct responses (attention to brief light stimuli)” value in test [3] is “far greater than before treatment”.

With `COC(=O)[C@@H]1[C@@H](OC(c2ccc(Cl)cc2)c2ccc(Cl)cc2)C[C@H]2CC[C@@H]1N2C` [Compound S-14], the Ki at NET [4] is 2150 ± 325 nM; at SERT [5] it was 528 ± 39 nM; at muscarinic M1 receptor [6] it was 382 ± 37 nM; at DAT [7] it was 12.6 ± 0.4 nM. At DA uptake, this compound registered an IC50 of 2.46 ± 0.2 nM.

As for `CCOC(=O)[C@@H]1[C@@H](OC(c2ccc(Cl)cc2)c2ccc(Cl)cc2)C[C@H]2CC[C@@H]1N2C` [Compound S-15, S-(+)-2β-Carboethoxy-3α-[bis(4-chlorophenyl)methoxy]tropane], the Ki at NET [4] came out at 3350 ± 154 nM; on SERT [5], 1560 ± 91 nM; on muscarinic M1 receptor [6], 3060 ± 150 nM; on DAT [7], 14.6 ± 0.39 nM. This compound had an IC50 against DA uptake of 1.52 ± 0.2 nM.

Consider `CCCCN1[C@@H]2CC[C@H]1C[C@@H](OC(c1ccc(F)cc1)c1ccc(F)cc1)C2` [Compound 12], for which the inhibition constant (Ki) at SERT [8] was 1350 ± 151 nM; on muscarinic M1 receptor [10], 399 ± 26.8 nM; at NET [11], 1490 ± 190 nM; on DAT [12] it was 9.7 ± 0.91 nM. For the same compound, the “Effect (of a 50% effective nicotine dose after pretreatment)” value in [1] (dose 3.0 mg/kg) turned out to be 2.67%. Besides, the “Binding selectivity DAT/NET” value with NET [9] is 153. For the same compound, the “Binding selectivity DAT/SERT” value on SERT [5] (setting [13]) is recorded as 139. Also, the “Binding selectivity DAT/M1” value at muscarinic M1 receptor [6] (setting [13]) turned out to be 41.
